Data: paper PMC8485799, “Synthesis and Antiprotozoal Profile of 3,4,5‐Trisubstituted Isoxazoles” (ChemistryOpen, 2021)

What was measured:
[1] = system: promastigote forms of Leishmania amazonensis (WHOM/BR/75/JOSEFA strain); test: Antiproliferative assay (XTT), promastigote forms, 72 h; assay type: cell-based; conditions: for IC50: Leishmania amazonensis, promastigote form, 72 h, XTT, read-out: L. amazonensis IC50; for SIL-F, selectivity index (Fibroblast CC50/L. amazonensis IC50): fibroblast vs promastigote; for SIL-M, selectivity index (Macrophages CC50/L. amazonensis IC50): macrophages vs promastigote
Experimental: (§1) The antiproliferative activity was determined in promastigote forms of Leishmania amazonensis (WHOM/BR/75/JOSEFA strain) and epimastigote forms of Trypanosoma cruzi (Y strain). The promastigote forms of L. amazonensis were cultured in Warren medium (brain heart infusion, hemin, and folic acid; pH 7.4) supplemented with 10 % fetal bovine serum (FBS) at 25 °C. The epimastigote forms of T.cruzi were cultured in LIT medium (liver infusion tryptose; hemin, and folic acid; pH 7.4) supplemented with 10 % FBS at 28 °C. Cytotoxicity in mammalian cells was determined in fibroblast line (L929) and macrophages (J774 A1). Fibroblasts were cultured in DMEM medium (pH 7.2) supplemented with 10 % FBS at 37 °C in a 5 % CO2 atmosphere. Macrophages were cultured in RPMI‐1640 (pH 7.2) medium supplemented with 10 % FBS at 37 °C in a 5 % CO2 atmosphere.
(§2) Stock solutions of the compounds were prepared in DMSO and then diluted in the respective medium.
(§3) Promastigote forms (1×10^6 parasites.mL^−1) were cultured in 96‐well plates in the presence and absence of different concentrations of compounds diluted in Warren medium supplemented with 10 % FBS and incubated for 72 h. The epimastigote forms (1×10^6 parasites.mL^−1) were cultured in 96‐well plates in the presence and absence of different concentrations of compounds diluted in LIT medium supplemented with 10 % FBS and incubated for 96 h. After treatment, the parasites were incubated with a solution of 2,3‐bis(2‐methoxy‐4‐nitro‐5‐sulfophenyl)‐2H‐tetrazolium‐5‐carboxanilide (XTT; 0.5 mg.mL^−1) and phenazine methanesulfonate activator (PMS; 0.06 mg.mL^−1) in PBS for 4 h. Then, the absorbance was read in a microplate reader (Bio Tek‐Power Wave XS) at 450 nm.[20] The percentage of viable parasites was calculated in relation to the control in order to determine the concentration that inhibits 50 % of the protozoa (IC50). The control groups of each experiment received the same experimental conditions as the treated groups (cell concentration used, temperature, and incubation time).

[2] = system: epimastigote forms of Trypanosoma cruzi (Y strain); test: Antiproliferative assay (XTT), epimastigote forms, 96 h; assay type: cell-based; conditions: for IC50: Trypanosoma cruzi, epimastigote form, 96 h, XTT, read-out: T. cruzi IC50; for SIT-F, selectivity index (Fibroblast CC50/T. cruzi IC50): fibroblast vs epimastigote; for SIT-M, selectivity index (Macrophages CC50/T. cruzi IC50): macrophages vs epimastigote
Experimental: as §1, §2, §3

[3] = Cytotoxicity assay in mammalian cells (MTT), fibroblasts, 72 h; assay type: cell-based; conditions: mouse, L929 fibroblast cells, pH 7.2; 50 % inhibition of fibroblast growth, 72 h, MTT
Experimental: as §1, §2
(§4) Fibroblast cell (2.5×10^5 cells.mL^−1) suspensions were prepared in DMEM medium supplemented with 10 % FBS and added to 96‐well plates. Then, the plates were incubated at 37 °C in a CO2 atmosphere for 24 h to obtain confluent cell growth. After incubation, cells were treated with different concentrations of compounds diluted in DMEM for 72 h or left untreated. Macrophage (5×10^5 cells.mL^−1) suspensions were prepared in RPMI‐1640 medium supplemented with 10 % FBS and added to 96‐well plates. Then, the plates were incubated at 37 °C in a CO2 atmosphere for 24 h to obtain confluent cell growth. After incubation, cells were treated with different concentrations of compounds diluted in RPMI‐1640 for 48 h or left untreated. After treatment, the medium was removed, and cells were incubated with MTT (2 mg.mL^−1) for 4 h. Then, DMSO was added for solubilization of the formazan and analyzed with a reading microplate reader (BIO‐TEK PowerWave XS spectrophotometer) at […].[20] The percentage of viable cells was calculated in relation to the untreated control group to determine the cytotoxic concentration in 50 % of the cells (CC50). The control groups of each experiment received the same experimental conditions as the treated groups (cell concentration used, temperature, CO2, and incubation time).

[4] = Cytotoxicity assay in mammalian cells (MTT), macrophages, 48 h; assay type: cell-based; conditions: mouse, J774 A1 macrophages, pH 7.2; 50 % inhibition of macrophages growth, 48 h, MTT
Experimental: as §1, §2, §4

| SMILES | IC50 [1] | SIL-F, selectivity index (Fibroblast CC50/L. amazonensis IC50) [1] | SIL-M, selectivity index (Macrophages CC50/L. amazonensis IC50) [1] | IC50 [2] | SIT-F, selectivity index (Fibroblast CC50/T. cruzi IC50) [2] | SIT-M, selectivity index (Macrophages CC50/T. cruzi IC50) [2] | melting point | CC50 at 72 h [3] | CC50 at 48 h [4] |
| --- | --- | --- | --- | --- | --- | --- | --- | --- | --- |
| COc1ccc(NCc2c(C(=O)N/N=C/c3ccccc3)noc2-c2ccc(F)cc2)cc1 [4 cc] | 56.3 ± 8.5 µM | 5.46 | 5.32 | 78.6 ± 7.4 µM | 3.91 | 3.81 | 181.7 to 185.5 °C | 308 ± 9.8 µM | 300 ± 8.9 µM |
| O=C(N/N=C/c1ccccc1)c1noc(-c2ccc(Cl)cc2)c1CNc1ccccc1 [4 da] | 48.6 ± 2.8 µM | 5.46 | 4.85 | 49.7 ± 2.2 µM | 5.34 | 4.74 | 189.3 to 191.8 °C | 266 ± 5.9 µM | 236 ± 9.6 µM |
| O=C(N/N=C/c1ccccc1)c1noc(-c2ccc(Cl)cc2)c1CNc1ccc(Cl)cc1 [4 db] | 67.4 ± 3.9 µM | 6.00 | 5.86 | 71 ± 4.7 µM | 5.70 | 5.56 | 167.5 to 169.3 °C | 404.7 ± 4 µM | 395 ± 9.9 µM |
| COc1ccc(NCc2c(C(=O)N/N=C/c3ccccc3)noc2-c2ccc(Cl)cc2)cc1 [4 dc] | 54.3 ± 2.7 µM | 5.45 | 4.50 | 65.9 ± 6.1 µM | 4.49 | 3.71 | 176.3 to 177.1 °C | 296 ± 9 µM | 245 ± 7.9 µM |
| O=C(N/N=C/c1ccccn1)c1noc(-c2ccc([N+](=O)[O-])cc2)c1CNc1ccccc1 [5 aa, 3‐[(2E)‐N'‐(2‐pyridinylmethylene)hydrazinecarbonyl]‐4‐(phenyl)aminomethyl‐5‐(4‐nitrophenyl)isoxazole] | 126 ± 2.1 µM | 3.24 | 3.09 | 123 ± 10.9 µM | 3.31 | 3.16 | 223.8 to 225.5 °C | 407.3 ± 3.9 µM | 388 ± 7.9 µM |
| O=C(N/N=C/c1ccccn1)c1noc(-c2ccccc2)c1CNc1ccccc1 [5 ba] | 35.8 ± 4.8 µM | 9.20 | 8.47 | 33.6 ± 4.4 µM | 9.80 | 9.02 | 194.8 to 195.6 °C | 330 ± 5.6 µM | 303 ± 9.5 µM |
| O=C(N/N=C/c1ccccn1)c1noc(-c2ccccc2)c1CNc1ccc(Cl)cc1 [5 bb] | 27.8 ± 4.1 µM | 12.38 | 11.01 | 26.9 ± 0.9 µM | 12.57 | 11.18 | 209.3 to 211.7 °C | 338 ± 8.6 µM | 301 ± 5.9 µM |
| O=C(N/N=C/c1ccccn1)c1noc(-c2ccc(F)cc2)c1CNc1ccccc1 [5 ca] | 74.8 ± 2.9 µM | 5.38 | 5.01 | 69.5 ± 3.7 µM | 5.79 | 5.38 | 157.7 to 159.6 °C | 403 ± 8.6 µM | 374 ± 5.8 µM |
| O=C(N/N=C/c1ccccn1)c1noc(-c2ccc(F)cc2)c1CNc1ccc(Cl)cc1 [5 cb] | 22.6 ± 5 µM | 6.81 | 4.96 | 39.4 ± 3.1 µM | 3.91 | 2.84 | 202.4 to 203.9 °C | 154 ± 7.8 µM | 112 ± 6.8 µM |
| O=C(N/N=C/c1ccccn1)c1noc(-c2ccc(Cl)cc2)c1CNc1ccccc1 [5 da] | 69 ± 8.7 µM | 4.32 | 4.19 | 72.6 ± 3.8 µM | 4.10 | 3.98 | 180.5 to 182.9 °C | 298 ± 5.7 µM | 289 ± 9.5 µM |
| O=C(N/N=C/c1ccccn1)c1noc(-c2ccc(Cl)cc2)c1CNc1ccc(Cl)cc1 [5 db] | 87.9 ± 2 µM | 2.30 | 2.26 | 97.3 ± 3.6 µM | 2.08 | 2.04 | 175.7 to 176.4 °C | 203 ± 3.1 µM | 198 ± 4.6 µM |
| COc1ccc(NCc2c(C(=O)N/N=C/c3ccccn3)noc2-c2ccc(Cl)cc2)cc1 [5 dc] | 17.4 ± 2 µM | 6.17 | 5.67 | 17.9 ± 0.7 µM | 6.00 | 5.51 | 210.4 to 212.4 °C | 107 ± 2.2 µM | 98.6 ± 2.3 µM |
| O=C(N/N=C/c1ccc(-c2cccs2)s1)c1noc(-c2ccc([N+](=O)[O-])cc2)c1CNc1ccccc1 [6 aa, 3‐[(2E)‐N'‐(2,2'‐bithienyl‐5‐methylene)hydrazinecarbonyl]‐4‐(phenyl)aminomethyl‐5‐(4‐nitrophenyl)isoxazole] | 32.9 ± 0.9 µM | 8.74 | 6.37 | 38.4 ± 2.1 µM | 7.48 | 5.46 | 232.5 to 233.9 °C | 287 ± 7.3 µM | 210 ± 9.6 µM |
| O=C(N/N=C/c1ccc(-c2cccs2)s1)c1noc(-c2ccccc2)c1CNc1ccc(Cl)cc1 [6 bb] | 18.4 ± 1.2 µM | 12.31 | 10.22 | 19 ± 0.7 µM | 11.92 | 9.90 | 211.1 to 213.9 °C | 226 ± 8.7 µM | 188 ± 7.4 µM |
| COc1ccc(NCc2c(C(=O)N/N=C/c3ccc(-c4cccs4)s3)noc2-c2ccccc2)cc1 [6 bc] | 17.2 ± 3.1 µM | 11.5 | 9.91 | 18.1 ± 2.4 µM | 10.9 | 9.42 | 165.5 to 167 °C | 198 ± 5.9 µM | 170 ± 3.3 µM |
